Results taken from US20230150951A1, “2,5- OR 2,6-DISUBSTITUTED HYDROQUINONE DERIVATIVES WITH AT LEAST ONE CARBOXY, SULFO OR AMIDO GROUP USEFUL AS MEDICAMENTS” (OM PHARMA SA, priority 2020, published 2023).
One block for each compound: values may come before it.

Columns and labels:
[1] = Prodrug stability in mouse plasma; format: in vitro ADME; settings: for remaining after 1 h (mouse plasma): ester cleaved; for half-life: read-out: T1/2 (mouse plasma)
[2] = Prodrug stability in human plasma; format: in vitro ADME; settings: for half-life: read-out: T1/2 (human plasma)
ARPE-19 cells [3] = assay: Outer blood retinal barrier: ARPE-19 monolayer permeability to FITC-dextran; format: cell-based, human
Description: (§1) The mechanisms of actions involved in the anti-permeability effect of the tested treatments were explored by assessing permeability to fluorescent dextran and proinflammatory cytokines production using their mRNA expression levels by RT-PCR.
(§2) Outer Blood Retinal Barrier conditions: human retinal pigment epithelial cells (RPE) cultures ARPE-19, a spontaneously immortalised human RPE cell line were obtained from American Type Culture Collection (Manassas, Va., USA). ARPE-19 cells and they were cultured in euglycaemic conditions (D-glucose (D-Glc), 5.5 mmol/L) and hyperglycaemic conditions (D-glucose, 25 mmol/L) for 18 days at 37° C. under 5% (vol./vol.) CO2 in medium (DMEM/F12) supplemented with 10% (vol./vol.) FBS (Hyclone; Thermo Fisher Scientific, UT, USA) and 1% (vol./vol.) penicillin/streptomycin (Hyclone; Thermo Fisher Scientific). ARPE-19 cells from passage 20 were used and the medium changed every 3-4 days. For permeability studies, ARPE-19 cells were seeded at 400,000 cells/ml (80,000 RPE cells/well) in 0.33 cm^2 HTS-Transwells (Costar; Corning, N.Y., USA). For real-time PCR, western blot analysis and immunofluorescence cells are seeded at 20,000 cells/ml.
(§3) Experimental conditions and treatments: apart from the euglycemic condition, eighteen different conditions were tested in cells cultured under 25 mmol/L D-glucose:
Condition 2) Cells are treated with diabetic milieu 25 mM D-Glucose+vehicle (days 15, 16 and 17 at one application/day) in order to evaluate their effect in preventing the cell damage provoked by the diabetic milieu.
Condition 9) Cells were treated with 25 mM D-Glucose and bevacizumab (0.2 mg/ml) for 72 h (days 15, 16 and 17 at one application/day) to evaluate their potential cytotoxic effects.
Condition 10)=Diabetic milieu; cells were treated with 25 mM D-Glucose+[…] (10 ng/ml)+TNF-α (25 ng/ml)+VEGF (25 ng/ml), for 48 h (days 16 and 17 at one application/day) in order to provoke the disruption of the monolayer.
Condition 17) Cells are treated with diabetic milieu (25 mM D-Glucose+IL-1β (10 ng/ml)+TNF-α (25 ng/ml)+VEGF (25 ng/ml))+bevacizumab (0.2 mg/mL) (days 15, 16 and 17 at one application/day) in order to evaluate their effect in preventing the cell damage provoked by the diabetic milieu.
Measurement of ARPE-19 permeability: The permeability of RPE cells was determined at 18 days by measuring the apical-to basolateral movements of FITC-dextran (40 kDa) (Sigma, St Louis, […]., USA) following a procedure previously reported by Villarroel et al. Exp Eye Res, 2009, 89, 913-920.

[4] = test system: human retinal endothelial cells (HRECs); assay: Inner blood retinal barrier: HREC monolayer permeability to FITC-dextran; format: cell-based
Description: as §1
Inner Blood Retinal Barrier conditions: primary human retinal endothelial cells (HRECs) were obtained from a vial of cryopreserved cells purchased from Innoprot (Vizcay, Spain). These cells were isolated from human retinal tissue of cadaveric eyes digested with 0.1 mg/mL collagenase type I at 37° C. for 1 hour. Then, endothelial cells were finally selected with CD31 antibody-coated magnetic beads (DynaBeads; Dynal, Oslo, Norway). HRECs were thawed in the laboratory and cultured in endothelial basal medium (EBM) containing, 5.5 mM D-glucose, 5% FBS (Fetal Bovine Serum), 100 U/mL penicillin, 100 μg/mL streptomycin, and ECG (Endothelial Cell Growth Supplement) supplement (Innoprot, Vizcay, Spain). Human fibronectin (MerckMillipore, Madrid, Spain) at 5 μg/mL was used for cell attachment. Cells at passages 2-3 will be used for the experiments. For experimentation, HRECs were grown to confluence and then cell culture media was changed to medium supplemented with 1% FBS for 24 h and then exposed to different treatments.
Conditions treatments: The same conditions specified for the experiment in ARPE-19 cells were used.
Measurement of HREC permeability: Permeability in HREC monolayers were obtained on permeable supports at 12×10^5 cells/well (24 wells, PCF filters, Merk Millipore). Inserts were incubated for 48 hours at 37° C. in 5% CO2-air to form the monolayer. At the end, medium was serum depleted 24 h before to proceed with the treatments. The lower chamber was filled with 600 μL of complete EBM medium and the upper chamber with 100 μL of cell suspension in serum depleted (1%).
To detect changes in the permeability, 100 μg/ml of fluorescent FITC-DEXTRAN (Sigma, Madrid, Spain), was added to the upper side of the insert. Aliquots of 200 μL from the basal compartment was read in a SpectraMax Gemini (Molecular Devices, Sunnyvale, Calif.) at a wavelength of excitation/emission 485/528 nm every 30 min. Finally, the concentration of dextran was determined by extrapolation of the fluorescence reads in a standard curve. Each condition was tested in triplicate.

ARPE-19 cells [5] = assay: ROS and cytokine/VEGF mRNA production by ARPE-19 monolayer cells in non-diabetic and diabetic milieu; format: cell-based, human; settings: ARPE19 monolayer, 0.2 mg/mL; for ROS: ROS % to 25 mM D-Glucose; for IL-1β R.Q. mRNA / IL-6 R.Q. mRNA / IL-18 R.Q. mRNA / TNFα R.Q. mRNA / VEGF R.Q. mRNA: relative change vs 25 mM D-Gluc
Experimental: as §2, §3
• Proinflammatory cytokines were evaluated in ARPE-19 cells by RT-PCR and mRNA for IL-6, TNF-α, IL-1β, IL-18, VEGF, IL-10, FGF were measured using the double delta CT method 2-ΔΔCT with Cts values for the gene of interest and the endogenous human B-actin to obtain ΔCT; mRNA values were expressed as relative change with respect to the condition 25 mM D-Gluc. (ref: Livak K J, Analysis of Relative Gene Expression Data Using Real-Time Quantitative PCR and the 2-ΔΔCT Method, Methods, 2001, 25(4), 402-408, doi 10.1006/meth.2001.1262) • ROS production was evaluated using Cell Biolabs' OxiSelect™ Intracellular ROS Assay (Green Fluorescence) (Bionova, Madrid, Spain). The assay employs the cell-permeable fluorogenic probe 2′, 7′-Dichlorodihydrofluorescin diacetate (DCFH-DA), oxidized to highly fluorescent 2′, 7′-Dichlorodihydrofluorescein (DCF) by cellular ROS. • Endothelin-1, PDGF and VCAM-1 expression was analyzed in HREC monolayers by immunohistochemical analysis and by RT-PCR. • TJ expression (ZO) is analyzed in ARPE-19 and HREC monolayers by immunohistochemical analysis.

[6] = diabetic milieu (25 mM D-Gluc + VEGF, TNF-α, IL-1β)

Compound: O=C(O)c1cc(O)cc(CS(=O)(=O)Cc2cc(O)cc(C(=O)OCCN3CCOCC3)c2O)c1O [IVc-059a-mpe1, 2,5-Dihydroxy-3-[[2,5-hydroxy-3-(2-morpholinoethoxycarbonyl)phenyl]methylsulfonyl-methyl]benzoic acid]
Stability in mouse plasma (in words) [1]: stable up to 60 min

Compound: O=C(OCCN1CCOCC1)c1cc(O)cc(CS(=O)(=O)Cc2cc(O)cc(C(=O)OCCN3CCOCC3)c2O)c1O [IVc-059a-mpe2, 2,5-Dihydroxy-3-[[2,5-hydroxy-3-(2-morpholinoethoxycarbonyl)phenyl]methylsulfonyl-methyl]benzoic acid 2-morpholinoethyl ester]
T1/2 (human plasma) [2]: > 3 h
Stability in mouse plasma (in words) [1]: stable up to 60 min

half-life [2]: > 3 h
remaining after 1 h (mouse plasma) [1]: 49%
half-life [1]: 0.743 h
Compound: CC(OC(=O)c1cc(NC(=O)c2cc(O)c(C(=O)Nc3ccc(O)c(C(=O)O)c3)cc2O)ccc1O)OC(=O)C(C)(C)C (stereo not shown) [Ic-007a-pive1, 5-[[4-[[3-[1-(2,2-dimethylpropanoyloxy)ethoxycarbonyl]-4-hydroxy-phenyl]carbamoyl]-2,5-dihydroxy-benzoyl]amino]-2-hydroxy-benzoic acid]

Stability in mouse plasma (in words) [1]: Hydrolyzed Rapidly
Compound: CC(OC(=O)c1cc(O)cc(CS(=O)(=O)Cc2cc(O)cc(C(=O)O)c2O)c1O)OC(=O)C(C)(C)C (stereo not shown) [IVc-059a-pive1, 3-[[3-[1-(2,2-Dimethylpropanoyloxy)ethoxycarbonyl]-2,5-dihydroxy-phenyl]methylsulfonyl-methyl]-2,5-dihydroxy-benzoic acid]

Compound: bevacizumab: comparator in ARPE-19 and HREC permeability experiments [reference compound]
% permeability ARPE19 (ARPE-19 cells [3]; No 9: 25 mM D-Gluc + 0.2 mg/mL): 109.5 ± 22.9%
% permeability ARPE19 (ARPE-19 cells [3]; No 17: 25 mM D-Gluc + 0.2 mg/mL + VEGF, TNF-α, (diabetic milieu)): 120.7 ± 30.1%
% permeability HREC ([4]; No 9: 25 mM D-Gluc + 0.2 mg/mL): 127.1 ± 26.2%
% permeability HREC ([4]; No 17: 25 mM D-Gluc + 0.2 mg/mL + VEGF, TNF-α, IL-β (diabetic milieu)): 129.0 ± 35.3%
ROS (ARPE-19 cells [5]; 25 mM D-Gluc): 110 ± 54%
IL-1β R.Q. mRNA (ARPE-19 cells [5]; 25 mM D-Gluc): 1.46 ± 0.72 R.Q.
IL-6 R.Q. mRNA (ARPE-19 cells [5]; 25 mM D-Gluc): 0.64 ± 0.34 R.Q.
IL-18 R.Q. mRNA (ARPE-19 cells [5]; 25 mM D-Gluc): 0.09 ± 0.01 R.Q.
TNFα R.Q. mRNA (ARPE-19 cells [5]; 25 mM D-Gluc): 0.46 ± 0.63 R.Q.
VEGF R.Q. mRNA (ARPE-19 cells [5]; 25 mM D-Gluc): 1.68 ± 0.83 R.Q.
ROS (ARPE-19 cells [5]; [6]): 111 ± 50%
IL-1β R.Q. mRNA (ARPE-19 cells [5]; [6]): 31.22 ± 12.65 R.Q.
IL-6 R.Q. mRNA (ARPE-19 cells [5]; [6]): 32.35 ± 13.48 R.Q.
IL-18 R.Q. mRNA (ARPE-19 cells [5]; [6]): 0.53 ± 0.04 R.Q.
TNFα R.Q. mRNA (ARPE-19 cells [5]; [6]): 1.37 ± 0.27 R.Q.
VEGF R.Q. mRNA (ARPE-19 cells [5]; [6]): 3.88 ± 0.68 R.Q.

half-life [2]: > 3 h
remaining after 1 h (mouse plasma) [1]: 65%
half-life [1]: 1.04 h
Compound: CC(OC(=O)c1cc(NC(=O)c2cc(O)c(C(=O)Nc3ccc(O)c(C(=O)OC(C)OC(=O)C(C)(C)C)c3)cc2O)ccc1O)OC(=O)C(C)(C)C (stereo not shown) [Ic-007a-pive2, 1-(2,2-dimethylpropanoyloxy)ethyl 5-[[4-[[3-[1-(2,2-dimethylpropanoyloxy)ethoxycarbonyl]-4-hydroxy-phenyl]carbamoyl]-2,5-dihydroxy-benzoyl]amino]-2-hydroxybenzoate]

half-life [2]: > 3 h
Stability in mouse plasma (in words) [1]: hydrolyzed rapidly
half-life [1]: 0.112 h
Compound: CC(C)(C)C(=O)OCOC(=O)c1cc(O)cc(CS(=O)(=O)Cc2cc(O)cc(C(=O)O)c2O)c1O [IVc-059a-pivm1, 2,5-Dihydroxy-3-[[2,5-dihydroxy-3-(2,2-dimethylpropanoyloxymethoxycarbonyl)phenyl]methyl-sulfonylmethyl]benzoic acid]

half-life [2]: > 3 h
Stability in mouse plasma (in words) [1]: hydrolyzed rapidly
half-life [1]: 0.235 h
Compound: CC(C)(C)C(=O)OCOC(=O)c1cc(O)cc(CS(=O)(=O)Cc2cc(O)cc(C(=O)OCOC(=O)C(C)(C)C)c2O)c1O [IVc-059a-pivm2, 2,2-Dimethylpropanoyloxymethyl 2,5-dihydroxy-3-[[2,5-dihydroxy-3-(2,2-dimethyl-propanoyloxymethoxycarbonyl)phenyl]methylsulfonylmethyl]benzoate]

Stability in human plasma (in words) [2]: hydrolyzed rapidly
Stability in mouse plasma (in words) [1]: hydrolyzed rapidly
Compound: CC(OC(=O)c1cc(O)cc(CS(=O)(=O)Cc2cc(O)cc(C(=O)OC(C)OC(=O)C(C)(C)C)c2O)c1O)OC(=O)C(C)(C)C (stereo not shown) [IVc-059a-pive2, 3-[[3-[1-(2,2-Dimethylpropanoyloxy)ethoxycarbonyl]-2,5-dihydroxy-phenyl]methyl-sulfonyl-methyl]-2,5-dihydroxy-benzoic acid 1-(2,2-dimethylpropanoyloxy)ethyl ester]
